For nine compounds, IC50 and AC50 results are on record in patent US20250333397A1 (REMIX THERAPEUTICS INC., priority 2021, published 2025).

Format in all cases: cell-based, human
One experiment relates to Target C mRNA. As to the kind of experiment: RT-qPCR splicing assay panel, Target C canonical junction (CJ) mRNA. The conditions noted are these: Homo sapiens. In short, it runs like this: (§1)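 CJ and AJ junction levels were quantified by RT-qPCR on lysates, with housekeeper ΔCt normalized to DMSO (ΔΔCt) and expressed as RQ = 2^(-ΔΔCt). Before lysis, K562 or A673 cells had 24 h compound exposure at 37 °C. Dosing was 11 points, 3-fold, from 10 uM final, with DMSO at most 0.25%.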

Another experiment has as its system SMN2 mRNA. Put plainly: RT-qPCR splicing assay panel, SMN2 canonical junction (CJ) mRNA. The conditions noted are these: Homo sapiens. In short, it runs like this: as §1
(In general: In qPCR the cycle at which signal appears reflects the starting amount.)

For the next experiment, the system named is HTT mRNA. Put plainly: RT-qPCR splicing assay, HTT canonical (CJ) and alternative (AJ) junction mRNA. The conditions noted are these: Homo sapiens; for AC50: read-out: HTT AJ (AC50, increase in AJ mRNA). In short, it runs like this:
as §1

The subject of the next experiment is MYB mRNA. As to the kind of experiment: RT-qPCR splicing assay, MYB canonical (CJ) and alternative (AJ) junction mRNA. The conditions noted are these: Homo sapiens; for AC50: read-out: MYB AJ (AC50, increase in AJ mRNA). In short, it runs like this: as §1
[1] abbreviates: canonical junction (CJ) mRNA, RT-qPCR panel, Table 4A, read-out: Target C, decrease in CJ mRNA levels, IC50.
[2] abbreviates: canonical junction (CJ) mRNA, RT-qPCR panel, Table 4A, read-out: SMN2, decrease in CJ mRNA levels, IC50.
[3] abbreviates: 24 h, Table 3A, A673 or K562 cells, 24 h treatment.
[4] abbreviates: 24 h, Table 3A, A673 or K562 cells, 24 h treatment, read-out: HTT CJ (IC50, decrease in CJ mRNA).
[5] abbreviates: canonical junction (CJ) mRNA, RT-qPCR panel, Table 4A, read-out: HTT, decrease in CJ mRNA levels, IC50.
[6] abbreviates: 24 h, Table 3A, A673 or K562 cells, 24 h treatment, read-out: MYB CJ (IC50, decrease in CJ mRNA).
[7] abbreviates: canonical junction (CJ) mRNA, RT-qPCR panel, Table 4A, read-out: MYB, decrease in CJ mRNA levels, IC50.
[8] abbreviates: 24 h, Table 3B, A673 or K562 cells, 24 h treatment.

Read-outs that look alike come from different tables or passages of the source.

As usually defined, the IC50 is the point on the concentration scale where inhibition reaches its midpoint. As a reminder, the AC50 is the concentration giving half of the maximal activity seen. Take `NCCNC1CCN(c2ccc(-c3ccc(-c4cn[nH]c4)cc3O)nn2)C1` (stereo not drawn) [Compound 208]: the IC50 in the experiment with Target C mRNA (setting [1]) lay within 1000 to 10000 nM; in the experiment on SMN2 mRNA (setting [2]), 100 to 1000 nM; in the experiment on HTT mRNA (setting [4]) it was 100 to 1000 nM; in the experiment on HTT mRNA (setting [5]) it was 100 to 1000 nM; in the experiment on MYB mRNA (setting [6]), 1000 to 10000 nM; in the experiment with MYB mRNA (setting [7]), 1000 to 10000 nM. Also, the AC50 with HTT mRNA (setting [3]) and with MYB mRNA (setting [3]) was 100 to 1000 nM in each case.
In the case of `Cc1cc(-c2ccc(-c3ccc(N4CCC(NCC5CC5)C4)nn3)c(O)c2)ncn1` (stereo not drawn) [Compound 369], the IC50 is 1000 to 10000 nM with Target C mRNA (setting [1]); 100 to 1000 nM in the experiment on SMN2 mRNA (setting [2]); 1000 to 10000 nM in the experiment with HTT mRNA (setting [4]); 1000 to 10000 nM in the experiment on HTT mRNA (setting [5]); 1000 to 10000 nM with MYB mRNA (setting [6]); 1000 to 10000 nM with MYB mRNA (setting [7]). For the same compound, the AC50 in the experiment on HTT mRNA (setting [3]) and in the experiment with MYB mRNA (setting [3]) was 1000 to 10000 nM throughout.
Turning to `Cc1nnc(-c2ccc(-c3ccc(N4CC[C@@H](NCC5CC5)C4)nn3)c(O)c2)s1` [Compound 415], the IC50 in the experiment with Target C mRNA (setting [1]) was 100 to 1000 nM; in the experiment on SMN2 mRNA (setting [2]), under 100 nM; with HTT mRNA (setting [4]) it was under 100 nM; in the experiment with HTT mRNA (setting [5]) it was under 100 nM; in the experiment with MYB mRNA (setting [6]), 100 to 1000 nM; in the experiment on MYB mRNA (setting [7]), 100 to 1000 nM. For the same compound, the AC50 in the experiment with HTT mRNA (setting [3]) was under 100 nM; in the experiment with MYB mRNA (setting [3]) it was 100 to 1000 nM.
As for `Cc1nnc(-c2cc(O)c(-c3ccc(N4CC[C@H](NC5CCC5)C4)nn3)cc2F)s1` [Compound 358], the IC50 is 1000 to 10000 nM in the experiment on Target C mRNA (setting [1]); 100 to 1000 nM in the experiment with SMN2 mRNA (setting [2]); 100 to 1000 nM in the experiment on HTT mRNA (setting [4]); 100 to 1000 nM in the experiment on HTT mRNA (setting [5]); 1000 to 10000 nM with MYB mRNA (setting [6]); 1000 to 10000 nM in the experiment on MYB mRNA (setting [7]). Also, the AC50 in the experiment on HTT mRNA (setting [3]) and in the experiment on MYB mRNA (setting [3]) was 1000 to 10000 nM each time.
Turning to `COc1cc(-c2ccc(-c3ccc(N4CCC(NC5CCC5)C4)nn3)c(O)c2)ccn1` (stereo not drawn) [Compound 305], the IC50 with Target C mRNA (setting [1]) is 1000 to 10000 nM; in the experiment with SMN2 mRNA (setting [2]) it was 100 to 1000 nM; with HTT mRNA (setting [4]), 100 to 1000 nM; in the experiment with HTT mRNA (setting [5]), 100 to 1000 nM; in the experiment on MYB mRNA (setting [6]) it was 1000 to 10000 nM; in the experiment on MYB mRNA (setting [7]) it was 1000 to 10000 nM. Besides, the AC50 in the experiment with HTT mRNA (setting [3]) lay in the range of 100 to 1000 nM; in the experiment with MYB mRNA (setting [3]), 1000 to 10000 nM.
`CC1(C)CC(Oc2ncc(-c3cc(F)c(-c4cn[nH]c4)cc3O)nn2)CC(C)(C)N1` [Compound 377]: the IC50 with Target C mRNA (setting [1]) was 100 to 1000 nM; with SMN2 mRNA (setting [2]), 100 to 1000 nM; with HTT mRNA (setting [4]), 100 to 1000 nM; in the experiment on HTT mRNA (setting [5]) it was 100 to 1000 nM; in the experiment on MYB mRNA (setting [6]), 1000 to 10000 nM; in the experiment on MYB mRNA (setting [7]), 1000 to 10000 nM. For the same compound, the results for the AC50 in the experiment with HTT mRNA (setting [3]) and in the experiment on MYB mRNA (setting [3]) were 100 to 1000 nM and 1000 to 10000 nM, respectively.
Take `COc1cc(-c2cc(O)c(-c3ccc(N4CCC(N[C@H]5C[C@H](F)C5)C4)nn3)cc2F)cnn1` (stereo partly drawn) [Compound 274]: the IC50 is 100 to 1000 nM with Target C mRNA (setting [1]); under 100 nM in the experiment on SMN2 mRNA (setting [2]); under 100 nM in the experiment on HTT mRNA (setting [4]); under 100 nM in the experiment on HTT mRNA (setting [5]); 100 to 1000 nM in the experiment with MYB mRNA (setting [6]); 100 to 1000 nM in the experiment with MYB mRNA (setting [7]). For the same compound, the AC50 in the experiment on HTT mRNA (setting [3]) and in the experiment with MYB mRNA (setting [3]) was 100 to 1000 nM each time.
For the compound `Cn1ccc2cc(O)c(-c3ccc(N4CC[C@H](NC(C)(C)C)C4)nn3)cc2c1=O` [Compound 873], the IC50 with Target C mRNA (Table 4B, gene panel, read-out: Target C (IC50, decrease in CJ mRNA levels)) is 1000 to 10000 nM; with SMN2 mRNA (Table 4B, gene panel, read-out: SMN2 (IC50, decrease in CJ mRNA levels)), 100 to 1000 nM; in the experiment on HTT mRNA (24 h, Table 3B, A673 or K562 cells, 24 h treatment, read-out: HTT CJ (IC50, decrease in CJ mRNA)), 100 to 1000 nM; in the experiment with HTT mRNA (Table 4B, gene panel, read-out: HTT (IC50, decrease in CJ mRNA levels)), 100 to 1000 nM; with MYB mRNA (24 h, Table 3B, A673 or K562 cells, 24 h treatment, read-out: MYB CJ (IC50, decrease in CJ mRNA)) it was over 10000 nM; in the experiment with MYB mRNA (Table 4B, gene panel, read-out: MYB (IC50, decrease in CJ mRNA levels)), over 10000 nM. In addition, the AC50 in the experiment on HTT mRNA (setting [8]) and in the experiment with MYB mRNA (setting [8]) was 1000 to 10000 nM throughout.
On to `COc1cc(-c2cc(O)c(-c3ccc(N4CCC(NCC5CC5)C4)nn3)cc2F)ncn1` (stereo not drawn) [Compound 417], for which the IC50 in the experiment on Target C mRNA (setting [1]) was over 10000 nM; in the experiment with SMN2 mRNA (setting [2]), 1000 to 10000 nM; with HTT mRNA (setting [4]), 1000 to 10000 nM; with HTT mRNA (setting [5]) it was 1000 to 10000 nM; with MYB mRNA (setting [6]), over 10000 nM; with MYB mRNA (setting [7]), over 10000 nM. Moreover, the AC50 in the experiment with HTT mRNA (setting [3]) and in the experiment on MYB mRNA (setting [3]) was 1000 to 10000 nM throughout.
